Measured values: patent US20100099762A1, “COMBINATION THERAPY” (THE MENTAL HEALTH RESEARCH INSTITUTE OF VICTORIA, priority 2006, published 2010)
Entries after “also recorded” stand apart in the source; their conditions may differ.

Test system: total glutathione levels
Assay: Total glutathione in striatum and liver of rats after CHX depletion
Type: in vivo, Sprague-Dawley rats
Conditions: CHX 75 mg/kg i.p.
Method: Male Sprague-Dawley rats aged nine weeks and weighing an average of 390 g, were used in the study. Animals were maintained on a twelve hour light-dark cycle with water and food ad libitum. Two animals were housed per cage with room temperature maintained at 22° C.
All pharmacological agents were administered by intraperitoneal injection (i.p.) in a volume of 1 ml/kg, except where otherwise stated. All agents were prepared using saline as a diluent. Brain GSH depletion was performed using cyclohexene-1-one (CHX), administered at 75 mg/kg. Animals were returned to their cage for 90 minutes prior to administration of N-acetyl cysteine (NAC) or N-acetyl cysteine amide (NACA or “AD4”). Animals were killed by decapitation 1 hour after NACA or NAC treatment.
Frontal cortex, striatum and liver samples were immediately excised on ice, weighed and sonicated in SSA buffer (5% sulfosalicylic acid in 100 mM disodium hydrogen orthophosphate, 100 mM sodium dihydrogen orthophosphate and 1 mM EDTA, pH 7.5, 5 mL/g wet tissue). The samples were subsequently centrifuged (22×10^3 g for 10 minutes, 4° C.) and the […] was taken and frozen at −80° C. until analysed.
Total glutathione levels (μmol GSH/gram tissue) were determined in all samples. Samples were assayed according to Baker et al. (1990). Reduced glutathione standards ranging from 0 to 320 ρmol of GSH in 50 μL were prepared in a background buffer identical to the samples (SSA buffer) and then treated in parallel with samples. 50 μl of sample or standard was placed on a 96-well microtiter plate with 100 μL of assay reagent (final concentration in well; 0.15 mM DTNB, 0.2 mM NADPH, 1.0 U glutathione reductase/mL). Plates were assayed for a total of 2 minutes at 414 nm using a Multiskan MCC/340 MK II plate reader and Genesis V3.05 computer software. All chemicals were purchased from Sigma-Aldrich. Statistical evaluation of the data was conducted using analysis of variance (ANOVA).

With O=C1C=CCCC1 [CHX, cyclohexene-1-one] the “Total glutathione levels in the brain striatum” value was “significant decrease; also recorded: depleted” and the “Total glutathione levels in the liver” value was “significant decrease; also recorded: depleted”.
